Results from paper PMC7366380, “Discovery of a Potent and Selective Covalent Inhibitor and Activity-Based Probe for the Deubiquitylating Enzyme UCHL1, with Antifibrotic Activity” (Journal of the American Chemical Society, 2020).
Values joined by “and” are separate entries in the source; they are usually repeats but may differ in a detail not shown here. Identical values can stand only once.

Tests used:
TRABID = target: T1, TRABID (Homo sapiens, UniProt Q9UGI0); assay: Biochemical DUB selectivity profiling assay: TRABID; settings: Ub-Rho110 400 nM, buffer B; read-out: Biochemical IC50 range, TRABID
T1 sequence (Q9UGI0 1-708): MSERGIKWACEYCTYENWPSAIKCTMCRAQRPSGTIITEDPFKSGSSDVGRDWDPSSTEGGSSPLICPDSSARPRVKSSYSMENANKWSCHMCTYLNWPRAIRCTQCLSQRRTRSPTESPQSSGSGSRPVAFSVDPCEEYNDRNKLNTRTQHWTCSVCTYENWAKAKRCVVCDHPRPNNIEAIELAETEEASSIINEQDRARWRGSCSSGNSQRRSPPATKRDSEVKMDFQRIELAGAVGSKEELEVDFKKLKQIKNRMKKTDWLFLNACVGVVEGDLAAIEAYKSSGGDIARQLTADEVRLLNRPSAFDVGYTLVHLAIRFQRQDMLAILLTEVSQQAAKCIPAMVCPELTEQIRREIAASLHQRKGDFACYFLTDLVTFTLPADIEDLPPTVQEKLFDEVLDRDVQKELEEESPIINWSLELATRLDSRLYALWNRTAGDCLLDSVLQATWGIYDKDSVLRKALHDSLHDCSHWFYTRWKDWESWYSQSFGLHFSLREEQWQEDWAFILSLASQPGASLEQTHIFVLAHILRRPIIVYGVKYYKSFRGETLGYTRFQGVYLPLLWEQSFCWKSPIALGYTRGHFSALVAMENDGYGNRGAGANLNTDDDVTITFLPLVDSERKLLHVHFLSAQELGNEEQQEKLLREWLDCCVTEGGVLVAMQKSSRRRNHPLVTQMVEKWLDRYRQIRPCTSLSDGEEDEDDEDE
Procedure: DUB Assay Substrate Substrate
Buffer Concentration (nM) […]
Sepharose® 4B resin (GE Healthcare).
10 kDa molecular weight cut-off (MWCO)).
Fractions containing protein
Protein concentration was […]
reaction volume of 21 μL. […]
compound (final concentration 5 nM).
IC50 values were determined
Biochemical DUB selectivity profiling assays […]
in 40 µL total reaction volume.

[1] = target: DUBs and other proteins in HEK293 cells (Homo sapiens, UniProt Q92905); assay: In-cell proteome-wide competitive ABPP, HEK293: other DUBs and proteins; settings: for Log2 reporter intensity values, COPS5: TMT replicates; for Log2 reporter intensity values: COPS5: competition with ABP 2, DMSO substract (FC); for Log2 reporter intensity values: COPS5 / Log2 reporter intensity values: replicates A-C; for Log2 t-test Difference / Log2 reporter intensity values: COPS5
Chain of DUBs and other proteins in HEK293 cells (Homo sapiens, UniProt Q92905) (Q92905 whole entry): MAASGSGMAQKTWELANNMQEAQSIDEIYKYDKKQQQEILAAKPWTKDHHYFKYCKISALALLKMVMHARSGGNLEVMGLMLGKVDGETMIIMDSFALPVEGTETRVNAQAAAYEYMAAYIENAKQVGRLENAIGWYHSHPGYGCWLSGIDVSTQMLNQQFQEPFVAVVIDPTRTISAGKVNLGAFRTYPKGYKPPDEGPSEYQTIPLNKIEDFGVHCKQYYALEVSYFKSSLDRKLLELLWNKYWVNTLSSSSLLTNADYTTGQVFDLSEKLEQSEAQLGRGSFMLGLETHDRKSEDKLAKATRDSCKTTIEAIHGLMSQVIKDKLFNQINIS

[2] = target: DUBs and other proteins in HEK293 cells (Homo sapiens, UniProt O00303); assay: as above; settings: for Log2 reporter intensity values, EIF3F: TMT replicates; for Log2 reporter intensity values: EIF3F: competition with ABP 2, DMSO substract (FC); for Log2 reporter intensity values: EIF3F / Log2 reporter intensity values: replicates A-C; for Log2 t-test Difference / Log2 reporter intensity values: EIF3F
Chain of DUBs and other proteins in HEK293 cells (Homo sapiens, UniProt O00303) (O00303 whole entry): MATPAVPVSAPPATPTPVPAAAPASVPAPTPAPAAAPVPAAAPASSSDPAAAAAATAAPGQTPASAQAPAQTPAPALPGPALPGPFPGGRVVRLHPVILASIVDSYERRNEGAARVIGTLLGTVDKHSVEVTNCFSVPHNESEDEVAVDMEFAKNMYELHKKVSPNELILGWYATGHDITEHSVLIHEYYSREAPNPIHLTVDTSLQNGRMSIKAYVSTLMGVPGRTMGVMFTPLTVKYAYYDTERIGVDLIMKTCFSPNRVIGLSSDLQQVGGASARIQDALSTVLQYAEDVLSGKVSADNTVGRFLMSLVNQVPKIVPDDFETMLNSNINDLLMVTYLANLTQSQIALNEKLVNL

[3] = target: DUBs and other proteins in HEK293 cells (Homo sapiens, UniProt O15372); assay: as above; settings: for Log2 reporter intensity values, EIF3H: TMT replicates; for Log2 reporter intensity values: EIF3H: competition with ABP 2, DMSO substract (FC); for Log2 reporter intensity values: EIF3H / Log2 reporter intensity values: replicates A-C; for Log2 t-test Difference / Log2 reporter intensity values: EIF3H
Chain of DUBs and other proteins in HEK293 cells (Homo sapiens, UniProt O15372) (O15372 whole entry): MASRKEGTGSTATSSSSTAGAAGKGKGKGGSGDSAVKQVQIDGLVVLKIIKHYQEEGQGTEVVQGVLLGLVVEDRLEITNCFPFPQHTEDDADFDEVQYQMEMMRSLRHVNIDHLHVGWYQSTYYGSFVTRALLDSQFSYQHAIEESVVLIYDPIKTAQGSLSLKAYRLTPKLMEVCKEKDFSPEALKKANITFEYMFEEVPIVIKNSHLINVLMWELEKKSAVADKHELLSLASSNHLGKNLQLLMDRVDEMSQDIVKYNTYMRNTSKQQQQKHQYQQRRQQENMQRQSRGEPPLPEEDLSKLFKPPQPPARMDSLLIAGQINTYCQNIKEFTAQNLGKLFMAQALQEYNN

[4] = target: DUBs and other proteins in HEK293 cells (Homo sapiens, UniProt Q96FW1); assay: as above; settings: replicates A-C; for Log2 reporter intensity values: OTUB1: competition with ABP 2, DMSO substract (FC); for Log2 reporter intensity values: OTUB1, DMSO subtracted
Chain of DUBs and other proteins in HEK293 cells (Homo sapiens, UniProt Q96FW1) (Q96FW1 whole entry): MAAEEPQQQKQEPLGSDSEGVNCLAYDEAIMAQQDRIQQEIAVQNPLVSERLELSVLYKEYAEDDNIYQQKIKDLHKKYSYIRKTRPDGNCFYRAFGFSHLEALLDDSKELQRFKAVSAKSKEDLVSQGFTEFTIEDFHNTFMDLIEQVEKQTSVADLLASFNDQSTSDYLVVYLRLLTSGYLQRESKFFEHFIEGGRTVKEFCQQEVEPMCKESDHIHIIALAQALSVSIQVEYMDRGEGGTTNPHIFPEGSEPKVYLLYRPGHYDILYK

[5] = target: DUBs and other proteins in HEK293 cells (Homo sapiens, UniProt Q9Y5T5); assay: as above; settings: replicates A-C; for Log2 reporter intensity values: USP16: competition with ABP 2, DMSO substract (FC); for Log2 reporter intensity values: USP16, DMSO subtracted
Chain of DUBs and other proteins in HEK293 cells (Homo sapiens, UniProt Q9Y5T5) (Q9Y5T5 whole entry): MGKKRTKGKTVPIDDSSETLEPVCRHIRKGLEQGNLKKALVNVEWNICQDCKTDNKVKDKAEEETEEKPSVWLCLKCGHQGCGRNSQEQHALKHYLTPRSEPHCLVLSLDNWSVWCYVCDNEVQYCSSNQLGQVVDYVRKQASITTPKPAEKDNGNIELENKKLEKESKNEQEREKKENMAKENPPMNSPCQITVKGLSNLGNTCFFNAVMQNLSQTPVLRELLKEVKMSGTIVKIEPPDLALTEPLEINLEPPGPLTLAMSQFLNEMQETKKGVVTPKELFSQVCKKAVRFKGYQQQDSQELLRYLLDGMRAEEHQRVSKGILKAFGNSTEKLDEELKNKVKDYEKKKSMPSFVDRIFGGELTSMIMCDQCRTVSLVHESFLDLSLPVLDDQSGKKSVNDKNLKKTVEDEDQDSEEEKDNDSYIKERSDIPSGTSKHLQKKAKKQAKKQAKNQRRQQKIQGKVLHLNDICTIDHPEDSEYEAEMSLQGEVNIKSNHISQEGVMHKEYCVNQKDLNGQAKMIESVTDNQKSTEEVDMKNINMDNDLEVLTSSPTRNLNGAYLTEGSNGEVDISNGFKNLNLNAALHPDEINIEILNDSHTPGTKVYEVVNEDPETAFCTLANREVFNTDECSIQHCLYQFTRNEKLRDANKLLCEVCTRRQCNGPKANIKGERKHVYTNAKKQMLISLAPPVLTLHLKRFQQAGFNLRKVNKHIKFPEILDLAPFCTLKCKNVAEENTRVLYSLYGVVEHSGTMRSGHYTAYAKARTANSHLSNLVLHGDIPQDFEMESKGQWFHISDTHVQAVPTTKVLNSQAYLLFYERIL

[6] = target: DUBs and other proteins in HEK293 cells (Homo sapiens, UniProt Q6P2Q9); assay: as above; settings: replicates A-C; for Log2 reporter intensity values: PRPF8: competition with ABP 2, DMSO substract (FC); for Log2 reporter intensity values: PRPF8, DMSO subtracted
[7] = target: T2, DUBs and other proteins in HEK293 cells (Homo sapiens, UniProt Q53GS9); assay: as above; settings: replicates A-C; for Log2 reporter intensity values: USP39: competition with ABP 2, DMSO substract (FC); for Log2 reporter intensity values: USP39, DMSO subtracted
T2 sequence (Q53GS9 1-565): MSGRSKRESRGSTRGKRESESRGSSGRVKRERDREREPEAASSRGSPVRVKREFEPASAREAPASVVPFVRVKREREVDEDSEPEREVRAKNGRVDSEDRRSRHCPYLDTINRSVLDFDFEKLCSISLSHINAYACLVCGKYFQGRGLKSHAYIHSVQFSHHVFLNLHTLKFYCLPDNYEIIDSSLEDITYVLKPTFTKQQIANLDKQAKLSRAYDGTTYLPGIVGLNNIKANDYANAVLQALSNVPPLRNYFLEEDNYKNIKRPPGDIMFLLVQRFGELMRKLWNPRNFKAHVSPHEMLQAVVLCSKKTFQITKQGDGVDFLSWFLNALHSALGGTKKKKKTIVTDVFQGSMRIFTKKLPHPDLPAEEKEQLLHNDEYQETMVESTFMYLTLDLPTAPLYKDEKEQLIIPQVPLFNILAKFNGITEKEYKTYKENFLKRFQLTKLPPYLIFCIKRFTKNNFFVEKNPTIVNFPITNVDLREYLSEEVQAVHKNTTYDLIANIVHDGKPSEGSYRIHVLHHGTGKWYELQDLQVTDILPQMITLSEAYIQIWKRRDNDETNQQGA

[8] = 1 μM 3 (60 min) + 20 nM ABP 2 (10 min), All values
[9] = 1 μM 3 (60 min) + 20 nM ABP 2 (10 min), DMSO subtracted
[10] = 4 μM 3 (60 min) + 20 nM ABP 2 (10 min), All values
[11] = 4 μM 3 (60 min) + 20 nM ABP 2 (10 min), DMSO subtracted

IC50 (TRABID): > 10 µM
Log2 reporter intensity values, COPS5 [1, 8]: 0.001825 and 0.1477 and 0.03353
Log2 reporter intensity values, COPS5 [1, 9]: 0.05994 and 0.2058 and 0.09165
Log2 reporter intensity values, COPS5 [1, 10]: -0.03978 and -0.2063 and -0.1486
Log2 reporter intensity values, COPS5 [1, 11]: 0.01834 and -0.1481 and -0.09052
Log2 reporter intensity values: COPS5 ([1]; 3 at 1 μM): 1.042 and 1.153 and 1.066
Log2 reporter intensity values: COPS5 ([1]; 3 at 4 μM): 1.013 and 0.9024 and 0.9392
Log2 t-test Difference ([1]; 3 - 1 μM): -0.04319
Log2 t-test Difference ([1]; 3 - 4 μM): -0.2358
Log2 reporter intensity values ([1]; 3_1 μM, DMSO subtracted): 0.04234 and 0.1532 and 0.0655
Log2 reporter intensity values ([1]; 3_4 μM, DMSO subtracted): 0.01271 and -0.09767 and -0.0609
Log2 reporter intensity values ([1]; 3 at 1 μM, DMSO subtracted): 0.05994 and 0.2058 and 0.09165
Log2 reporter intensity values ([1]; 3 at 4 μM, DMSO subtracted): 0.01834 and -0.1481 and -0.09052
Log2 reporter intensity values, EIF3F [2, 8]: 0.01809 and -0.02026 and 0.07981
Log2 reporter intensity values, EIF3F [2, 9]: 0.02764 and -0.01071 and 0.08936
Log2 reporter intensity values, EIF3F [2, 10]: -0.1978 and 0.02104 and -0.01378
Log2 reporter intensity values, EIF3F [2, 11]: -0.1882 and 0.03059 and -0.004226
Log2 reporter intensity values: EIF3F ([2]; 3 at 1 μM): 1.019 and 0.9926 and 1.064
Log2 reporter intensity values: EIF3F ([2]; 3 at 4 μM): 0.8777 and 1.021 and 0.9971
Log2 t-test Difference ([2]; 3 - 1 μM): -0.05527
Log2 t-test Difference ([2]; 3 - 4 μM): -0.1447
Log2 reporter intensity values ([2]; 3_1 μM, DMSO subtracted): 0.01893 and -0.007817 and 0.06348
Log2 reporter intensity values ([2]; 3_4 μM, DMSO subtracted): -0.1227 and 0.02101 and -0.003343
Log2 reporter intensity values ([2]; 3 at 1 μM, DMSO subtracted): 0.02764 and -0.01071 and 0.08936
Log2 reporter intensity values ([2]; 3 at 4 μM, DMSO subtracted): -0.1882 and 0.03059 and -0.004226
Log2 reporter intensity values, EIF3H [3, 8]: -0.08032 and 0.01397 and -0.006379
Log2 reporter intensity values, EIF3H [3, 9]: -0.1099 and -0.01562 and -0.03597
Log2 reporter intensity values, EIF3H [3, 10]: 0.0444 and 0.04115 and 0.06318
Log2 reporter intensity values, EIF3H [3, 11]: 0.01481 and 0.01156 and 0.03359
Log2 reporter intensity values: EIF3H ([3]; 3 at 1 μM): 0.9266 and 0.9892 and 0.9754
Log2 reporter intensity values: EIF3H ([3]; 3 at 4 μM): 1.01 and 1.008 and 1.024
Log2 t-test Difference ([3]; 3 - 1 μM): -0.05018
Log2 t-test Difference ([3]; 3 - 4 μM): 0.02364
Log2 reporter intensity values ([3]; 3_1 μM, DMSO subtracted): -0.0735 and -0.01091 and -0.02477
Log2 reporter intensity values ([3]; 3_4 μM, DMSO subtracted): 0.01017 and 0.007903 and 0.02341
Log2 reporter intensity values ([3]; 3 at 1 μM, DMSO subtracted): -0.1099 and -0.01562 and -0.03597
Log2 reporter intensity values ([3]; 3 at 4 μM, DMSO subtracted): 0.01481 and 0.01156 and 0.03359
Log2 reporter intensity values: OTUB1 ([4]; 3 at 1 μM): 0.9728 and 1.005 and 0.986
Log2 reporter intensity values: OTUB1 ([4]; 3 at 4 μM): 1.016 and 1.059 and 1.053
Log2 reporter intensity values ([4]; 3_1 μM): -0.02736 and 0.004799 and -0.01417
Log2 reporter intensity values ([4]; 3_4 μM): 0.01602 and 0.05888 and 0.05243
Log2 reporter intensity values ([4]; 3 at 1 μM): -0.03984 and 0.007079 and -0.02041
Log2 reporter intensity values ([4]; 3 at 4 μM): 0.0231 and 0.08271 and 0.07389
Log2 reporter intensity values: USP16 ([5]; 3 at 1 μM): 1.04 and 1.242 and 1.156
Log2 reporter intensity values: USP16 ([5]; 3 at 4 μM): 1.088 and 0.9104 and 1.039
Log2 reporter intensity values ([5]; 3_1 μM): 0.03732 and 0.2403 and 0.1536
Log2 reporter intensity values ([5]; 3_4 μM): 0.08611 and -0.09176 and 0.0368
Log2 reporter intensity values ([5]; 3 at 1 μM): 0.0559 and 0.3132 and 0.2089
Log2 reporter intensity values ([5]; 3 at 4 μM): 0.1221 and -0.1354 and 0.05518
Log2 reporter intensity values: PRPF8 ([6]; 3 at 1 μM): 0.9503 and 0.8885 and 0.9546
Log2 reporter intensity values: PRPF8 ([6]; 3 at 4 μM): 0.9411 and 0.9829 and 0.9624
Log2 reporter intensity values ([6]; 3_1 μM): -0.0499 and -0.1118 and -0.04563
Log2 reporter intensity values ([6]; 3_4 μM): -0.05909 and -0.0173 and -0.03782
Log2 reporter intensity values ([6]; 3 at 1 μM): -0.07348 and -0.1706 and -0.06701
Log2 reporter intensity values ([6]; 3 at 4 μM): -0.08751 and -0.02483 and -0.05526
Log2 reporter intensity values: USP39 ([7]; 3 at 1 μM): 0.9789 and 0.9555 and 0.9911
Log2 reporter intensity values: USP39 ([7]; 3 at 4 μM): 0.9367 and 1.076 and 1.058
Log2 reporter intensity values ([7]; 3_1 μM): -0.0217 and -0.04512 and -0.009501
Log2 reporter intensity values ([7]; 3_4 μM): -0.06394 and 0.07549 and 0.05768
Log2 reporter intensity values ([7]; 3 at 1 μM): -0.03075 and -0.0657 and -0.01288
Log2 reporter intensity values ([7]; 3 at 4 μM): -0.09439 and 0.1058 and 0.08174
Structure (SMILES): N#CN1CCC[C@@H]1C(=O)N1CCc2c(-c3c[nH]c4ncccc34)cccc21 [Compound 3]
